Assay results published in patent US20120283216A1, “FUNGICIDAL 2-(BICYCLIC ARYLOXY)CARBOXAMIDES” (priority 2009, published 2012).

Key:
Type in all cases: in vivo
[1] = tested on: Blumeria graminis f. sp. tritici; experiment: Test A: wheat powdery mildew, preventive spray on wheat seedlings, visual disease rating; conditions: preventive spray at 40 ppm, rated 8 days after inoculation; for pest or weed control at 40 ppm: Blumeria graminis, 192 h, read-out: Test A disease control rating (100 = 100% disease control, 0 = no disease control relative to the controls)
In short: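 Wheat seedlings sprayed to run-off with 40 ppm compound (equivalent to 800 g/ha) in acetone/water with 250 ppm surfactant, then dusted with B. graminis spores next day. Held at 20° C. for 8 days before visual rating, 0–100 scale as % disease control relative to controls.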

Septoria tritici = experiment: Test B: wheat leaf blotch, preventive spray on wheat seedlings, visual disease rating; conditions: preventive spray at 40 ppm, rated after 48 h + 19 days; for pest or weed control at 40 ppm: Zymoseptoria tritici, 504 h, read-out: Test B disease control rating (100 = 100% disease control, 0 = no disease control relative to the controls)
In short: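 Wheat seedlings were sprayed to run-off with 40 ppm compound (≈800 g/ha) in acetone/water with 250 ppm surfactant, then inoculated with Septoria tritici spores the next day. After 48 h saturated humidity at 20° C and 19 days in a growth chamber at 20° C, disease control was rated visually (0–100% vs controls).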

Botrytis cinerea = experiment: Test C: tomato botrytis, preventive spray on tomato seedlings, visual disease rating; conditions: preventive spray at 40 ppm, rated after 48 h + 3 days; for pest or weed control at 40 ppm: Botrytis cinerea, 120 h, read-out: Test C disease control rating (100 = 100% disease control, 0 = no disease control relative to the controls)
In short: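 Compounds applied at 40 ppm (≈800 g/ha) in acetone/water with surfactant, sprayed to run-off on tomato seedlings. Inoculated next day with B. cinerea spores; 48 h saturated humidity at 20 °C, then 3 days at 27 °C. Visual rating as % disease control versus untreated controls.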

Row | Structure (SMILES) | Test A disease control rating (100 = 100% disease control, 0 = no disease control relative to the controls) [1] | Test B disease control rating (100 = 100% disease control, 0 = no disease control relative to the controls) (Septoria tritici) | Test C disease control rating (100 = 100% disease control, 0 = no disease control relative to the controls) (Botrytis cinerea) | pest or weed control at 40 ppm [1] | pest or weed control at 40 ppm (Septoria tritici) | pest or weed control at 40 ppm (Botrytis cinerea)
1 | CCC(Oc1ccc2ccc(C(F)F)cc2c1)C(=O)NC(C)(C)C#N (stereo not drawn) [Compound 77] | 0% | 99% | 67% | – | – | –
2 | CCC(Oc1cnc2ccc(Cl)cc2c1)C(=O)NC(C)(C)COC (stereo not drawn) [Compound 49] | 96% | 99% | 98% | – | – | –
3 | C#CCOc1ccc2ccc(OC(OC)C(=O)NC(C)(C)COC)cc2c1 (stereo not drawn) [Compound 130] | 21% | 98% | 100% | – | – | –
4 | CCC(Oc1ccc2ccc(Br)cc2c1)C(=O)NC(C)(C)COC (stereo not drawn) [Compound 7, 2-[(7-bromo-2-naphthalenyl)oxy]-N-(2-methoxy-1,1-dimethylethyl)butanamide] | – | – | – | 100% | 99% | 99%
5 | CCCOc1ccc2ccc(OC(OC)C(=O)NC(C)(C)C)cc2c1 (stereo not drawn) [Compound 125] | 92% | 100% | 98% | – | – | –
6 | COCC(C)(C)NC(=O)C(OC)Oc1cnc2ccc(Br)cc2c1 (stereo not drawn) [Compound 154] | 91% | 99% | 94% | – | – | –
7 | COCC(C)(C)NC(=O)C(C)Oc1ccc2ccc(C#N)cc2c1 (stereo not drawn) [Compound 25] | 47% | 96% | 99% | – | – | –
8 | CCOC(Oc1ccc2ccc(OC)cc2c1)C(=O)NC(C)(C)C#N (stereo not drawn) [Compound 116] | 13% | 99% | 99% | – | – | –
9 | CCC(Oc1ccc2ccc(OC)cc2c1)C(=O)NC(C)(C)C(=O)OC (stereo not drawn) [Compound 84] | 0% | 84% | 100% | – | – | –
10 | COC(Oc1cnc2ccc(I)cc2c1)C(=O)NC1(C)CC1 (stereo not drawn) [Compound 64] | 84% | 99% | 100% | – | – | –
11 | CCC(Oc1cnc2ccc(Cl)cc2c1)C(=O)NC(C)(C)CO (stereo not drawn) [Compound 42] | 0% | 0% | 0% | – | – | –
12 | CCOCC(C)(C)NC(=O)C(CC)Oc1cnc2ccc(Cl)cc2c1 (stereo not drawn) [Compound 50] | 84% | 98% | 90% | – | – | –
13 | CCC(Oc1ccc2ccc(Br)cc2c1)C(=O)NC(C)(C)C1CO1 (stereo not drawn) [Compound 19] | 0% | 60% | 98% | – | – | –
14 | CCC(Oc1cnc2ccc(I)cc2c1)C(=O)NC(C)(C)COC (single isomer, unassigned) [Compound 62] | 0% | 0% | 7% | – | – | –
15 | CCC(Oc1cnc2ccc(Br)cc2c1)C(=O)NC(C)(C)CO (stereo not drawn) [Compound 39] | 21% | 0% | 33% | – | – | –
16 | C#CC(C)(C)NC(=O)C(CC)Oc1ccc2ccc(OCOC)cc2c1 (stereo not drawn) [Compound 73] | 0% | 100% | 99% | – | – | –

Row | Structure (SMILES) | Test A disease control rating (100 = 100% disease control, 0 = no disease control relative to the controls) [1] | Test B disease control rating (100 = 100% disease control, 0 = no disease control relative to the controls) (Septoria tritici) | Test C disease control rating (100 = 100% disease control, 0 = no disease control relative to the controls) (Botrytis cinerea) | pest or weed control at 40 ppm [1] | pest or weed control at 40 ppm (Septoria tritici) | pest or weed control at 40 ppm (Botrytis cinerea)
17 | C#CC(C)(C)NC(=O)C(CC)Oc1ccc2ccc(OCCC)cc2c1 (stereo not drawn) [Compound 129] | 96% | 99% | 99% | – | – | –
18 | CCC(Oc1ccc2ccc(Br)cc2c1)C(=O)NC(C)(C)CNC(=O)OC(C)(C)C (stereo not drawn) [Compound 12] | 0% | 93% | 0% | – | – | –
19 | C#Cc1ccc2ccc(OC(CC)C(=O)NC(C)(C)C#N)cc2c1 (stereo not drawn) [Compound 110, N-(1-cyano-1-methylethyl)-2-[(7-ethynyl-2-naphthalenyl)oxy]butanamide] | – | – | – | 100% | 100% | 100%
20 | COC(Oc1ccc2ccc(C(F)F)cc2c1)C(=O)NC(C)(C)C#N (stereo not drawn) [Compound 79] | 72% | 98% | 99% | – | – | –
21 | CCC(Oc1ccc2ccc(OC)cc2c1)C(=O)NC(C)(C)COC (stereo not drawn) [Compound 88] | 99% | 100% | 100% | – | – | –
22 | CC#Cc1ccc2ccc(OC(CC)C(=O)NC(C)(C)COC)cc2c1 (stereo not drawn) [Compound 107, N-(2-methoxy-1,1-dimethylethyl)-2-[[7-(1-propyn-1-yl)-2-naphthalenyl]oxy]butanamide] | – | – | – | 100% | 100% | 99%
23 | CCC(Oc1ccc2ccc(SC)cc2c1)C(=O)NC(C)(C)COC (stereo not drawn) [Compound 91] | 97% | 100% | 100% | – | – | –
24 | COCC(C)(C)NC(=O)C(OC)Oc1ccc2ccc(OC)cc2c1 (stereo not drawn) [Compound 83] | 96% | 99% | 100% | – | – | –
25 | CCC(Oc1ccc2ccc(Br)cc2c1)C(=O)NC1(C)CC1 (stereo not drawn) [Compound 13] | – | – | – | 50% | 98% | 99%
26 | C#CC(C)(C)NC(=O)C(CC)Oc1ccc2ccc(OCC)cc2c1 (stereo not drawn) [Compound 76, N-(1,1-dimethyl-2-propyn-1-yl)-2-[(7-ethoxy-2-naphthalenyl)oxy]butanamide] | – | – | – | 100% | 100% | 100%
27 | CCC(Oc1cnc2ccc(Br)cc2c1)C(=O)NC(C)(C)COCOC (stereo not drawn) [Compound 58] | 99% | 100% | 99% | – | – | –
28 | C#Cc1ccc2ncc(OC(CC)C(=O)NC(C)(C)C)cc2c1 (stereo not drawn) [Compound 149] | 100% | 100% | 98% | – | – | –
29 | C#CC(C)(C)NC(=O)C(CC)Oc1ccc2ccc(OC)cc2c1 (stereo not drawn) [Compound 4] | 97% | 100% | 100% | – | – | –
30 | COc1ccc2ccc(OC(OC)C(=O)NC(C)(C)C#N)cc2c1 (stereo not drawn) [Compound 81] | 0% | 99% | 100% | – | – | –
31 | CC#CC(C)(C)NC(=O)C(CC)Oc1ccc2ccc(CC)cc2c1 (stereo not drawn) [Compound 142] | 96% | 77% | 93% | – | – | –
